System: Human lung cancer-derived Calu 6 (HTB-56)
Assay: Example 1: anti-tumor effect of FK330 alone or combined with chemotherapeutic agents in Calu-6 tumor-bearing nude mice
Assay type: in vivo
Source text: A free-form dihydrate of FK330 was used. Hereinafter, the amount of FK330 administered is expressed in weight of the dihydrate. A docetaxel hydrate injectable preparation (Taxotere (trademark), for intravenous infusion) was purchased from Sanofi-Aventis SA, and was used as docetaxel. A paclitaxel injectable preparation (paclitaxel injection liquid “Sawai”) was purchased from Sawai Pharmaceutical Co., Ltd., and was used as paclitaxel. Irinotecan hydrochloride (Topotesin (trade name) injection) was purchased from Daiichi Sankyo Co., Ltd., and was used as irinotecan. Gemcitabine hydrochloride for injection (Gemzar (trade name) injection) was purchased from Eli Lilly Japan K.K., and was used as gemcitabine. Doxorubicin hydrochloride for injection (Adriacin (trade name) Injection 10) was purchased from Kyowa Hakko Kogyo Co., Ltd., and was used as doxorubicin. A carboplatin injection liquid (Paraplatin (trade name) injection liquid) was purchased from Bristol Myers Squibb Co., and was used as carboplatin.
FK330 was suspended (20 mg/mL) in a 0.5% aqueous methyl cellulose solution (0.5% MC). Docetaxel was prepared in the attached dissolution liquid at 4 mg/mL, and was diluted with physiological saline (Otsuka Pharmaceutical Group) to 1 mg/mL. Paclitaxel, irinotecan, gemcitabine, doxorubicin, and carboplatin were prepared with physiological saline for injection at the time of use at concentrations of 1 mg/mL, 3 mg/mL, 16 mg/mL, 1 mg/mL, and 6 mg/mL, respectively.
Human lung cancer-derived Calu 6 (HTB-56) was obtained from American Type Culture Collection (VA, USA). The cells were cultured under the conditions of 37° C. and 5% CO2 by using RPMI1640 medium containing 10% heat-inactivated fetal bovine serum (FBS). The cells were harvested with trypsin and were suspended in PBS at 6×10^7 cells/mL, and the suspension was mixed with an equal amount of Matrigel (trade name) Basement Membrane Matrix (manufactured by Becton Dickinson Co., Bedford, Mass., USA).
Five-week old male nude mice (CAnN Cg-Foxn1nu/CrlCrlj(nu/nu)) were purchased from Charles River Laboratories Japan, Inc. (Japan, Kanagawa). The animals were raised under specific pathogen-free (SPF) conditions throughout the test period by feeding standard feedstuff and drinking water. The cultured cells were subcutaneously inoculated into the dorsal region of the nude mice at a concentration of 3×10^6 cells/0.1 mL/mouse. Nude mice which had the tumor volumes (major axis×[minor axis]^2×0.52) ranging from 111.9 mm^3 to 369.3 mm^3 were assigned by using SAS to minimize the fluctuation in tumor volume between the groups and within the group.
The first day of administration was designated as Day 1, and observation was made until Day 29. The respective groups (n=5 or 6) were treated as follows. FK330 was orally gavaged (5 mL/kg) twice a day at an interval of 6 to 8 hours, and each of the chemotherapeutic agents was administered by intravenous bolus injection (10 mL/kg) through the tail vein.
FK330 single administration group: 100 mg/kg of FK330 was administered twice a day (bid) (200 mg/kg/day, administered every day from the initiation of experiment to the completion)
Docetaxel single administration group: Docetaxel 10 mg/kg/day (Day 1, 5 and 9)
Paclitaxel single administration group: Paclitaxel 10 mg/kg/day (Day 1 through 7)
Irinotecan single administration group: lrinotecan 30 mg/kg/day (Day 1 through 7)
Gemcitabine single administration group: Gemcitabine 160 mg/kg/day (Day 1, 4 and 7)
Doxorubicin single administration group: Doxorubicin 10 mg/kg/day (Day 1 and 8)
Carboplatin single administration group: Carboplatin 60 mg/kg/day (Day 1 and 2)
FK330 100 mg/kg bid+Docetaxel 10 mg/kg/day (Day 1, 5 and 9), n=6
FK330 100 mg/kg bid+Paclitaxel 10 mg/kg/day (Day 1 through 7), n=6
FK330 100 mg/kg bid+Irinotecan 30 mg/kg/day (Day 1 through 7), n=6
FK330 100 mg/kg bid+Gemcitabine 160 mg/kg/day (Day 1, 4 and 7), n=6
FK330 100 mg/kg bid+Doxorubicin 10 mg/kg/day (Day 1 and 8), n=6 […]

O=C(/C=C/c1ccc(Cl)cc1)N[C@@H](Cc1ccccn1)C(=O)NCC(=O)N1CCC(Oc2cc(C(F)(F)F)ncn2)CC1 [FK330, N^2-[(2E)-3-(4-chlorophenyl)-2-propenoyl]-N-[2-oxo-2-(4-{[6-(trifluoromethyl)pyrimidin-4-yl]oxy}piperidin-1-yl)ethyl]-3-pyridin-2-yl-L-alaninamide]
tumor volume reduction ratio compared with docetaxel-only group (Day 29, FK330 100 mg/kg bid p.o. + docetaxel 10 mg/kg/day i.v. (Day 1, 5 and 9), significant): 63.5%
tumor volume reduction ratio compared with doxorubicin-only group (Day 29, FK330 100 mg/kg bid p.o. + doxorubicin 10 mg/kg/day i.v. (Day 1 and 8), not significant): 33.5%
tumor volume reduction ratio compared with irinotecan-only group (Day 29, FK330 100 mg/kg bid p.o. + irinotecan 30 mg/kg/day i.v. (Day 1 through 7), not significant): 30.8%
tumor volume reduction ratio compared with paclitaxel-only group (Day 29, FK330 100 mg/kg bid p.o. + paclitaxel 10 mg/kg/day i.v. (Day 1 through 7), significant): 57.6%
effect of FK330 on the anti-tumor effect of carboplatin (FK330 100 mg/kg bid p.o. + carboplatin 60 mg/kg/day i.v. (Day 1 and 2)): did not affect
effect of FK330 on the anti-tumor effect of gemcitabine (FK330 100 mg/kg bid p.o. + gemcitabine 160 mg/kg/day i.v. (Day 1, 4 and 7)): did not affect
anti-tumor effect when FK330 was used alone (FK330 100 mg/kg bid p.o. alone, every day, observation until Day 29): not recognized
